# From ChEMBL document CHEMBL5523716, “Discovery of novel EGFR-PROTACs capable of degradation of multiple EGFR-mutated proteins” (Eur J Med Chem, 2024)
# pIC50: −log10 of the molar value. Activity calls are given as the source filed them. No cut-off for these calls is given here.
# Legend:
# [1] = Cmax in SPF ICR mouse at 2 mg/kg,iv measured upto 24 hrs by LC-MS/MS analysis; type: ADME, organism-based; conditions: in vivo
# [2] = Half life in SPF ICR mouse at 5 mg/kg,ip measured upto 24 hrs by LC-MS/MS analysis; type: ADME, organism-based; conditions: in vivo
# [3] = system: von Hippel-Lindau disease tumor suppressor/Epidermal growth factor receptor (Homo sapiens), P00533+P40337 [L858R,T790M,C797S]; assay: PROTAC activity at VHL/EGFR L858R/T790M/C797S mutant in human H1975-TM cells assessed as induction of EGFR degradation at 2.5 uM Western blot analysis; type: cell-based; conditions: TDE = time-dependent effect
# [4] = system: von Hippel-Lindau disease tumor suppressor/Epidermal growth factor receptor (Homo sapiens), P00533+P40337 [L858R,T790M]; assay: PROTAC activity at VHL/EGFR L858R/T790M mutant in human NCI-H1975 cells assessed as downregulation of AKT phosphorylation incubated for 72 hrs by Western blot analysis; type: cell-based
# [5] = system: von Hippel-Lindau disease tumor suppressor/Epidermal growth factor receptor (Homo sapiens), P00533+P40337 [UNDEFINED MUTATION]; assay: PROTAC activity at VHL/EGFR Del19 mutant in human HCC827 cells assessed as maximal EGFR degradation at 1.56 to 100 nM incubated for 72 hrs by Western blot analysis relative to control; type: cell-based; conditions: dose 1.56-100 nM
# [6] = Metabolic stability in dog liver microsomes assessed as intrinsic clearance at 1 uM incubated upto 60 mins in presence of NADPH by LC-MS/MS analysis; type: ADME, Canis lupus familiaris, Microsome; conditions: read-out: CLH
# [7] = Toxicity in BALB/c mouse xenografted with human HCC827 cells assessed as change in body weight at 1.25 to 5 mg/kg,ip once daily for 28 days; type: organism-based; conditions: in vivo, 672 h, dose 1.25-5 mg/kg, time 28 day
# [8] = system: von Hippel-Lindau disease tumor suppressor/Epidermal growth factor receptor (Homo sapiens), P00533+P40337 [L858R,T790M]; assay: PROTAC activity at VHL/EGFR L858R/T790M mutant in human NCI-H1975 cells assessed as induction of EGFR degradation at 100 nM preincubated with MLN-4924 for 6 hrs followed by compound treatment for 48 hrs by Western blot analysis; type: cell-based
# [9] = system: NCI-H1975; assay: Antitumor activity against human NCI-H1975 cells xenografted in BALB/c mouse assessed as tumor growth inhibition at 20 mg/kg,ip once daily for 22 days relative to control; type: functional; conditions: NCI-H1975, 528 h, time 22 day, read-out: TGI
# [10] = system: von Hippel-Lindau disease tumor suppressor/Epidermal growth factor receptor (Homo sapiens), P00533+P40337 [L858R,T790M,C797S]; assay: PROTAC activity at VHL/EGFR L858R/T790M/C797S mutant in human H1975-TM cells assessed as induction of EGFR degradation at 100 nM preincubated with MG-132 for 6 hrs followed by compound treatment for 48 hrs by Western blot analysis; type: cell-based
# [11] = system: A549; assay: Antiproliferative activity against human A549 cells harboring EGFR wild type assessed as inhibition of cell growth incubated for 48 to 72 hrs by CCK-8 assay; type: functional, cell-based
# [12] = system: von Hippel-Lindau disease tumor suppressor/Epidermal growth factor receptor (Homo sapiens), P00533+P40337 [L858R,T790M]; assay: PROTAC activity at VHL/EGFR L858R/T790M mutant in human NCI-H1975 cells assessed as downregulation of EGFR phosphorylation incubated for 72 hrs by Western blot analysis; type: cell-based
# [13] = system: NCI-H1975; assay: Antiproliferative activity against human NCI-H1975 cells harboring EGFR L858R/T790M double mutant assessed as inhibition of cell growth incubated for 48 to 72 hrs by CCK-8 assay; type: functional, cell-based
# [14] = system: von Hippel-Lindau disease tumor suppressor/Epidermal growth factor receptor (Homo sapiens), P00533+P40337 [L858R,T790M,C797S]; assay: PROTAC activity at VHL/EGFR L858R/T790M/C797S mutant in human H1975-TM cells assessed as downregulation of ERK phosphorylation incubated for 48 hrs by Western blot analysis; type: cell-based
# [15] = system: von Hippel-Lindau disease tumor suppressor/Epidermal growth factor receptor (Homo sapiens), P00533+P40337 [L858R,T790M]; assay: PROTAC activity at VHL/EGFR L858R/T790M mutant in human NCI-H1975 cells assessed as induction of EGFR degradation at 100 nM preincubated with MG-132 for 6 hrs followed by compound treatment for 48 hrs by Western blot analysis; type: cell-based
# [16] = AUC (0 to t) in SPF ICR mouse at 5 mg/kg,ip measured upto 24 hrs by LC-MS/MS analysis; type: ADME, organism-based; conditions: in vivo
# [17] = Metabolic stability in rat liver microsomes assessed as half-life at 1 uM incubated upto 60 mins in presence of NADPH by LC-MS/MS analysis; type: ADME, Microsome
# [18] = Metabolic stability in mouse liver microsomes assessed as half-life at 1 uM incubated upto 60 mins in presence of NADPH by LC-MS/MS analysis; type: ADME, Microsome
# [19] = Metabolic stability in monkey liver microsomes assessed as half-life at 1 uM incubated upto 60 mins in presence of NADPH by LC-MS/MS analysis; type: ADME, Macaca mulatta, Microsome; conditions: rhesus monkey
# [20] = system: HCC827; assay: Antitumor activity against human HCC827 cells xenografted in BALB/c mouse assessed as increase in EGFR degradation in tumor at 1.25 to 5 mg/kg,ip once daily for 28 days by Western blot analysis; type: functional, organism-based; conditions: dose 1.25-5 mg/kg, time 28.0 day
# [21] = system: von Hippel-Lindau disease tumor suppressor/Epidermal growth factor receptor (Homo sapiens), P00533+P40337 [L858R,T790M,C797S]; assay: PROTAC activity at VHL/EGFR L858R/T790M/C797S mutant in human H1975-TM cells assessed as downregulation of EGFR phosphorylation incubated for 48 hrs by Western blot analysis; type: cell-based
# [22] = Metabolic stability in human liver microsomes assessed as intrinsic clearance at 1 uM incubated upto 60 mins in presence of NADPH by LC-MS/MS analysis; type: ADME, Microsome; conditions: read-out: CLH
# [23] = system: von Hippel-Lindau disease tumor suppressor/Epidermal growth factor receptor (Homo sapiens), P00533+P40337 [UNDEFINED MUTATION]; assay: PROTAC activity at VHL/EGFR Del19 mutant in human HCC827 cells assessed as induction of EGFR degradation at 100 nM preincubated with MG-132 for 6 hrs followed by compound treatment for 48 hrs by Western blot analysis; type: cell-based
# [24] = system: NCI-H1975; assay: Antitumor activity against human NCI-H1975 cells xenografted in BALB/c mouse assessed as tumor growth inhibition at 10 mg/kg,ip once daily for 22 days relative to control; type: functional; conditions: NCI-H1975, 528 h, time 22 day, read-out: TGI
# [25] = system: von Hippel-Lindau disease tumor suppressor/Epidermal growth factor receptor (Homo sapiens), P00533+P40337 [L858R,T790M,C797S]; assay: PROTAC activity at VHL/EGFR L858R/T790M/C797S mutant in human H1975-TM cells assessed as induction of EGFR degradation at 100 nM preincubated with MLN-4924 for 6 hrs followed by compound treatment for 48 hrs by Western blot analysis; type: cell-based
# [26] = system: H1975-TM; assay: Antitumor activity against human H1975-TM cells xenografted in BALB/c mouse assessed as downregulation of EGFR phosphorylation in tumor at 5 to 20 mg/kg,ip once daily for 14 days by Western blot analysis; type: functional, organism-based; conditions: dose 5-20 mg/kg, time 14.0 day
# [27] = system: NCI-H1975; assay: Antitumor activity against human NCI-H1975 cells xenografted in BALB/c mouse assessed as increase in EGFR degradation in tumor at 20 mg/kg,ip once daily for 22 days by Western blot analysis relative to control; type: functional; conditions: time 22 day
# [28] = Antitumor activity against human H1975-TM cells xenografted in BALB/c mouse assessed as tumor growth inhibition at 20 mg/kg,ip once daily for 14 days relative to control; type: functional; conditions: 336 h, time 14 day, read-out: TGI
# [29] = system: von Hippel-Lindau disease tumor suppressor/Epidermal growth factor receptor (Homo sapiens), P00533+P40337 [L858R,T790M]; assay: PROTAC activity at VHL/EGFR L858R/T790M mutant in human NCI-H1975 cells assessed as downregulation of ERK phosphorylation incubated for 72 hrs by Western blot analysis; type: cell-based
smiles,measurement,setting,value
CCN(CC)C/C=C/C(=O)Nc1cc2c(Nc3ccc(F)c(Cl)c3)ncnc2cc1OCc1cn(CCCCCCCC(=O)N[C@H](C(=O)N2C[C@H](O)C[C@H]2C(=O)N[C@H](C)c2ccc(-c3scnc3C)cc2)C(C)(C)C)nn1,Cmax,[1],7830 ng/mL
same,half-life,[2],0.96 h
same,Activity,[3],Tde
same,Activity,[4],Dose-Dependent Effect
same,Emax,[5],100%
same,microsomal CLint at 1 µM,[6],17.8 µL/min/mg
same,Activity,[7],Non-Toxic
same,Activity,[8],inactive
same,inhibition in vivo at 20 mg/kg,[9],85%
same,Activity,[10],inactive
same,pIC50,[11],< 4.70
same,Activity,[12],Dose-Dependent Effect
same,pIC50,[13],6.31
same,Activity,[14],Dose-Dependent Effect
same,Activity,[15],inactive
same,AUC(0-t) at 24 h,[16],2820 ng·h/mL
same,half-life at 1 µM,[17],3.12 h
same,half-life at 1 µM,[18],1.95 h
same,half-life at 1 µM,[19],0.632 h
same,Activity,[20],Active
same,Activity,[21],Dose-Dependent Effect
same,microsomal CLint at 1 µM,[22],84 µL/min/mg
same,Activity,[23],inactive
same,inhibition in vivo at 10 mg/kg,[24],79%
same,Activity,[25],inactive
same,Activity,[26],Active
same,Activity,[27],>75%
same,inhibition in vivo at 20 mg/kg,[28],50%
same,Activity,[29],Dose-Dependent Effect
